Data from publication PMC5340293 (Bioorganic & medicinal chemistry letters, 2016).
Like-named read-outs stand apart in the source and are kept apart here.

Experiments:
PAR4 [1] = target: T1, PAR4 (Homo sapiens, UniProt Q96RI0); experiment: Progressive fold-shift; format: cell-based; conditions: for mode of PAR4 inhibition: progressive fold-shift, parallel right-ward shift of CRC
T1 sequence (Q96RI0 18-385): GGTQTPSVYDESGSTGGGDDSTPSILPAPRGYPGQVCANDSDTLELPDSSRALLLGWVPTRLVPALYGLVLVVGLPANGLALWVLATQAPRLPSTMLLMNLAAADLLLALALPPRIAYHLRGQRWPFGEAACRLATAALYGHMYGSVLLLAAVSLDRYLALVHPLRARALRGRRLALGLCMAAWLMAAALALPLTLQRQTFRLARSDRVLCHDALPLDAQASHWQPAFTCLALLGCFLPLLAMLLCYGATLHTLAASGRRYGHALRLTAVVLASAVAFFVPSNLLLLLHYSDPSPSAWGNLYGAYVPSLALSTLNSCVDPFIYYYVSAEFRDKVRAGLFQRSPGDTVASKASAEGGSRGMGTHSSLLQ

PAR4 [2] = target: T1, PAR4; conditions: cited from earlier work
collagen receptor = experiment: Platelet aggregation, collagen I activation; format: cell-based, human; conditions: 10 μg/ml collagen I; antagonist at micromolar concentrations
PAR4 [3] = target: T2, PAR4 (Homo sapiens, UniProt Q96RI0); experiment: γ-thrombin stimulated PAC-1 binding, flow cytometry; format: cell-based
T2 sequence (Q96RI0 48-385 limits assumed): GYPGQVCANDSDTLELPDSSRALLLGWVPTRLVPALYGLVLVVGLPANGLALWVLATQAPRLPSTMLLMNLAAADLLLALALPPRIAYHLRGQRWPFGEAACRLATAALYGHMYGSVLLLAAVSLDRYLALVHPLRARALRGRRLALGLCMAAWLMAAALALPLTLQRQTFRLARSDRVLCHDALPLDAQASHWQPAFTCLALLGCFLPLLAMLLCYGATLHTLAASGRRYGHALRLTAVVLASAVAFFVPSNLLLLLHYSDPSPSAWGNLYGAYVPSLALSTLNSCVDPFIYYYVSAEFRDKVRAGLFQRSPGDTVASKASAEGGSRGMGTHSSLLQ

PAR4 [4] = target: T1, PAR4; experiment: PAR4-AP stimulated PAC-1 binding, flow cytometry; format: cell-based

Structure (SMILES) | Schild EC50 log DR-1 versus log [antagonist] plot slope (PAR4 [1]) | mode of PAR4 inhibition (PAR4 [1]) | also measured
COc1cc(OCc2csc(-c3ccccc3)n2)c2cc(-c3cn4nc(OC)sc4n3)oc2c1 [compound 2] | – | – | mode of PAR4 inhibition (PAR4 [2]): mixed competitive/non-competitive
COc1nn2cc(-c3cc4ccccc4o3)nc2s1 [compound 3, 6-(benzofuran-2-yl)-2-methoxyimidazo[2,1-b][1,3,4]thiadiazole] | – | – | off-target effects on the collagen receptor (collagen I induced aggregation) (collagen receptor): devoid
COc1nn2cc(-c3cc4cc(OC(F)(F)F)ccc4n3C)nc2s1 [compound 5] | – | – | γ-thrombin ligand efficiency (LE) (PAR4 [3]): 0.33; off-target effects on the collagen receptor (collagen I induced aggregation) (collagen receptor): eliminated; fold more potent than 1 against AP (PAR4 [4]): ~ 9 fold
CNc1nn2cc(-c3c(F)cccc3F)nc2s1 [NHCH3 derivative] | – | – | PAR4 inhibitory activity (PAR4 [4]; result in words): inactive

More lines, main results first:

Schild EC50 log DR-1 versus log [antagonist] plot slope (PAR4 [1]) | mode of PAR4 inhibition (PAR4 [1]) | Structure (SMILES) | also measured
0.95±0.09 | competitive | COc1nn2cc(-c3ccc(C(F)(F)F)cc3)nc2s1 [4c] | –
0.94±0.08 | competitive | COc1nn2cc(-c3ccc(OC(F)(F)F)cc3)nc2s1 [4n] | –
1.09±1.3 | competitive | COc1nn2cc(-c3ccc(Cl)cc3)nc2s1 [4k] | –
